Measured values reported in article PMC5008829, “Computational Analysis of the Ligand Binding Site of the Extracellular ATP Receptor, DORN1” (PLoS ONE, 2016).

Columns and labels:
Experiment in all cases: radioligand saturation binding, Sephadex G-25 gel filtration
[1] = biological target: T1, DORN1 WT (LEC), lectin domain only (Arabidopsis thaliana, UniProt Q9LSR8); details: [γ-32P]ATP labelled compound; 10 mM HEPES pH 7.5, 5 mM MgCl2, on ice 30 min
T1 construct: gene LECRK19; L-type lectin domain only, recombinant from E. coli (GST fusion likely)
T1 sequence (Q9LSR8 22-257 limits assumed): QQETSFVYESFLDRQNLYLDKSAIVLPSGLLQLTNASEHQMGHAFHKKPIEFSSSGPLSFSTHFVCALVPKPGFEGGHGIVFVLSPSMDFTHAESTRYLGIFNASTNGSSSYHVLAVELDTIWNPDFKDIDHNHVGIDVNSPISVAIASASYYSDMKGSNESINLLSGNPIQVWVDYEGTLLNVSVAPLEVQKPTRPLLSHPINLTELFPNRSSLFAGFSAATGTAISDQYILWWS
Excerpt: radioligand saturation binding, Sephadex G-25 gel filtration on DORN1 WT (LEC), lectin domain only | WT (LEC): lectin domain only, WT (ECD): extracellular domain

[2] = biological target: T2, DORN1 WT (ECD), extracellular domain (Arabidopsis thaliana, UniProt Q9LSR8)
T2 construct: gene LECRK19; extracellular domain, signal peptide removed, pGEX-5X N-terminal GST fusion, E. coli BL21-AI, glutathione Sepharose; primers encode QETSFVY...APHKKVST
T2 sequence (Q9LSR8 23-288): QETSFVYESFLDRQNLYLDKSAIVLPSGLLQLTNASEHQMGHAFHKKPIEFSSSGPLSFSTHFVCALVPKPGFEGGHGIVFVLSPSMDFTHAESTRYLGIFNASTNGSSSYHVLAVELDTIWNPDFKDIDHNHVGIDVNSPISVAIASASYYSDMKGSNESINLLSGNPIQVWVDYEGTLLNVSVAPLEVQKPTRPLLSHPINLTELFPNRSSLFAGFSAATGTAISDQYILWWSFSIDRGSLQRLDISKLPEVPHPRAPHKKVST

[3] = biological target: T3, DORN1 WT (ECD), extracellular domain (Arabidopsis thaliana, UniProt Q9LSR8, DEL141-146)
T3 construct: gene LECRK19; extracellular domain, signal peptide removed, pGEX-5X N-terminal GST fusion, E. coli BL21-AI, glutathione Sepharose; primers encode QETSFVY...APHKKVST
T3 sequence (Q9LSR8 with tags, fused parts or gaps DEL141-146): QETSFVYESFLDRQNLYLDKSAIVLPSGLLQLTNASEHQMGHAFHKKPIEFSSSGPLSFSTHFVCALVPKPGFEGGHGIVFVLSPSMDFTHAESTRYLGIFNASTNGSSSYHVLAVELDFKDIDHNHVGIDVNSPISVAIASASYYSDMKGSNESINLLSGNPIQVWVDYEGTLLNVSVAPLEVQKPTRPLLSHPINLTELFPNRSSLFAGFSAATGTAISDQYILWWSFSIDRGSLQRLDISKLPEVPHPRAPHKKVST

[4] = biological target: T4, DORN1 WT (ECD), extracellular domain (Arabidopsis thaliana, UniProt Q9LSR8, DEL116-118)
T4 construct: gene LECRK19; extracellular domain, signal peptide removed, pGEX-5X N-terminal GST fusion, E. coli BL21-AI, glutathione Sepharose; primers encode QETSFVY...APHKKVST
T4 sequence (Q9LSR8 with tags, fused parts or gaps DEL116-118): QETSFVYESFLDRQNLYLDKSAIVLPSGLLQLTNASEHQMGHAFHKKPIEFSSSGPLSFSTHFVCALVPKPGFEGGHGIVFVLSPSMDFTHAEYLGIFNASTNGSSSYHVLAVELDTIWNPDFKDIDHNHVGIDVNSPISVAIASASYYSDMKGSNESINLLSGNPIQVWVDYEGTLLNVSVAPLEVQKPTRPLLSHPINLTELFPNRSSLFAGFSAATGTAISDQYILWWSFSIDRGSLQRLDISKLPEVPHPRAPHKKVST

Molecule `Nc1ncnc2c1ncn2[C@@H]1O[C@H](COP(=O)(O)OP(=O)(O)OP(=O)(O)O)[C@@H](O)[C@H]1O` [ATP] has a Kd [1] of 52.6 nM, a Kd [2] of 38.3 nM and a Kd [3] of 190 nM. It also gave a Kd [4] of 534 nM.
